# Measured values from article PMC5712521, “Dendrogenin A drives LXR to trigger lethal autophagy in cancers” (Nature Communications, 2017).
# How the values were obtained:
# SKMEL-28 cells [1] = assay: RT-qPCR of LXR-responsive genes; format: cell-based, human; settings: 8 h, 2.5 µM DDA, 10 µM 22(R)HC, 1 µM GW, 100 nM TO, vs vehicle
# Method: Total RNA was extracted from tumor cells or MEFs using an RNA Extraction kit (Qiagen) or Trizol (Invitrogen), respectively, and was quantified with NanoDrop. Complementary DNA (cDNA) synthesis was performed with 1 μg RNA iScript Reverse Transcriptase (Bio-Rad). 25 ng cDNA was amplified using SyBR Supermix (Bio-Rad). RNA expression of the different genes of interest (Supplementary Tables 1, 2) were determined using the ΔΔCT method, where the difference in the threshold cycle (ΔCT) values of the target gene and the housekeeping gene for each sample was normalized to the ΔCT value of the untreated sample.
# Supplementary Fig. 4. a R egulat ion of LXR-responsive genes b y D DA and other k nown LXR
# ligands in B16F10 and SKMEL- 28 cells transfected with s iRN A targeting LXRβ ( siLXRβ) or
# with contro l siRN A scram ble (siSC). Cells were treated for 8 h with either solvent vehicle, 2.5
# µM DD A, 10 µM 22(R) hydrox ycholesterol (22(R)HC), 1 µM GW 3965 (GW ) or 100 nM
# T O901317 (T O). […]
# SKMEL-28 cells [2] = assay: Immunoblot densitometry (LC3-II); format: cell-based, human; settings: 2.5 µM DDA; for LC3-II protein, densitometry relative to control: SKMEL-28, 24 h, 10 µM 22(R)HC, 100 nM TO; for LC3-II protein, densitometry relative to untreated / LC3-II protein, densitometry: 24 h
# Method: Immunoblotting was carried out as described previously. Proteins were separated on SDS-PAGE gels, electro-transferred onto polyvinylidene difluoride membranes and incubated overnight at 4 °C with the following antibodies: anti-Atg3, anti-Atg5 (D1G9), anti-Atg7 (D12B11), anti-Beclin (D40C5), anti-caspase-3 (Cell Signaling), anti-Bcl-2 (Millipore), anti-Bax (Millipore), anti-LC3 (Sigma-Aldrich), anti-LXRα (SantaCruz), anti-LXRβ (SantaCruz), anti-Nur77 (Active motif), anti-NOR1 (R&D systems), anti-PARP (Cell Signaling), anti-Vps34 (Cell Signaling), or anti-Actin (Millipore). For visualization, an ECL plus kit (Amersham Biosciences) was used, and chemiluminescence was measured by autoradiography (Supplementary Fig. 9). Specific bands were quantified with ImageQuant software.
# B16F10 cells = assay: DDA-induced cytotoxicity (cell death); format: cell-based
# Method: (§1) Melanoma cells were seeded into 6-well plates at 60,000 cells per well and AML cells at 250,000 cells/ml. The cells were then treated with control solvent vehicle (1/1000 ethanol in water) or DDA. Where indicated, treated cells were incubated in the presence or absence of each inhibitor for time shown. Cell death was determined by the trypan blue exclusion assay. Cells were scraped and resuspended in trypan blue solution (0.25% (w/v) in PBS) and counted in a Malassez cell under light microscopy. Cell viability was then quantified by counting viable (trypan blue-negative) and dead cells (trypan blue-positive).
# (§2) Supplementary Fig. 1. a DDA inhibited m elanom a colony form ation. Melanom a cells were […]
# (§3) a 0.5% solution of crystal violet in water and analyzed by microscopy. Images are representative of 5 independent experiments. b Evaluation of DDA-induced cytotoxicity (cytotox) and clonogenicity (clono) inhibition in a subset of human (H) and mouse (M) m elanom a cell lines. T he BRaf status in m elanom a cells lines is shown. […]
# SKMEL-28 cells [3] = assay: DDA-induced cytotoxicity (cell death); format: cell-based
# Method: as §1, §2, §3
# SKMEL-28 cells [4] = assay: Sterol analysis by GC/MS; format: cell-based, human
# Method: Sterols in cell homogenates were extracted with a solvent mixture containing chloroform/methanol 2/1 (v/v) spiked with epicoprostanol as the internal standard. Lipids were partitioned in chloroform after the addition of saline and saponified by methanolic potassium hydroxide (0.5 N, 60 °C, 15 min). The fatty acids released were methylated with BF3-methanol (12%, 60 °C, 15 min) to not interfere with the chromatography of sterols. The sterols were re-extracted in hexane and silylated, as described previously. The trimethylsilylether derivatives of the sterols were separated by gas chromatography (GC) (Hewlett–Packard 6890 series) in a medium polarity capillary column RTX-65, (65% diphenyl 35% dimethyl polysiloxane, length 30 m, diameter 0.32 mm, film thickness 0.25 μm (Restesk, Evry, France)). The mass spectrometer (Agilent 5975 inert XL) in series with the GC was set up for the detection of positive ions. Ions were produced in the electron impact mode at 70 eV. Sterols were identified by the fragmentogram in the scanning mode and quantified by selective monitoring of the specific ions after normalization with the internal standard epicoprostanol and calibration with weighed standards. […]
# Quantification of sterols ac cum ulation in SKMEL- 2 8 c ells either expressing LXRβ (shCT L) or with LXRβ (sh3 or sh4LXR β) k nock ed down after 24 h treatm ent with 2.5 µ M DD A or solvent vehicle. Anal yses were perform ed by GC/MS. f Quantification of sterols accumulated in m elanom a cells after 24 h treatm ent with 10 µM 22(R) HC, 1 µ M GW , 100 nM T O or solvent […]
# vehicle. […]
# [5] = SKMEL-28, 24 h, 10 µM 22(R)HC, 1 µM GW, 100 nM TO, GC/MS
# [6] = SKMEL-28 Sh3LXRβ, 2.5 µM DDA, 24 h
# [7] = SKMEL-28 Sh4LXRβ, 2.5 µM DDA, 24 h
# [8] = SKMEL-28 shCTRL, 2.5 µM DDA, 24 h
smiles,measurement,setting,value
"O=S(=O)(c1ccccc1)N(CC(F)(F)F)c1ccc(C(O)(C(F)(F)F)C(F)(F)F)cc1 [TO, TO901317]",ABCA1 mRNA,"SKMEL-28 cells [1]; SKMEL-28, siCT",4.2±1.2 fold
same,ABCG1 mRNA,"SKMEL-28 cells [1]; SKMEL-28, siCT",2.8±0.5 fold
same,ABCG5 mRNA,"SKMEL-28 cells [1]; SKMEL-28, siCT",3.1±0.5 fold
same,ABCG8 mRNA,"SKMEL-28 cells [1]; SKMEL-28, siCT",1.5±0.1 fold
same,LC3A mRNA,"SKMEL-28 cells [1]; SKMEL-28, siCT",0.8±0.1 fold
same,LC3B mRNA,"SKMEL-28 cells [1]; SKMEL-28, siCT",0.9±0.2 fold
same,LDLR mRNA,"SKMEL-28 cells [1]; SKMEL-28, siCT",1.0±0.2 fold
same,NOR1 mRNA,"SKMEL-28 cells [1]; SKMEL-28, siCT",1.7±0.1 fold
same,Nur77 mRNA,"SKMEL-28 cells [1]; SKMEL-28, siCT",1.1±0.2 fold
same,SCD1 mRNA,"SKMEL-28 cells [1]; SKMEL-28, siCT",1.8±0.2 fold
same,SREBP1 mRNA,"SKMEL-28 cells [1]; SKMEL-28, siCT",1.8±0.3 fold
same,SULT2B1b mRNA,"SKMEL-28 cells [1]; SKMEL-28, siCT",1.8±0.2 fold
same,ABCA1 mRNA,"SKMEL-28 cells [1]; SKMEL-28, siLXRβ",2.2±0.3 fold
same,ABCG1 mRNA,"SKMEL-28 cells [1]; SKMEL-28, siLXRβ",1.1±0.2 fold
same,ABCG5 mRNA,"SKMEL-28 cells [1]; SKMEL-28, siLXRβ",1.1±0.1 fold
same,ABCG8 mRNA,"SKMEL-28 cells [1]; SKMEL-28, siLXRβ",0.8±0.1 fold
same,LC3A mRNA,"SKMEL-28 cells [1]; SKMEL-28, siLXRβ",0.9±0.1 fold
same,LC3B mRNA,"SKMEL-28 cells [1]; SKMEL-28, siLXRβ",0.9±0.1 fold
same,LDLR mRNA,"SKMEL-28 cells [1]; SKMEL-28, siLXRβ",0.9±0.1 fold
same,NOR1 mRNA,"SKMEL-28 cells [1]; SKMEL-28, siLXRβ",1.0±0.2 fold
same,Nur77 mRNA,"SKMEL-28 cells [1]; SKMEL-28, siLXRβ",1.1±0.2 fold
same,SCD1 mRNA,"SKMEL-28 cells [1]; SKMEL-28, siLXRβ",1.2±0.2 fold
same,SREBP1 mRNA,"SKMEL-28 cells [1]; SKMEL-28, siLXRβ",1.3±0.2 fold
same,SULT2B1b mRNA,"SKMEL-28 cells [1]; SKMEL-28, siLXRβ",1.3±0.2 fold
same,"LC3-II protein, densitometry relative to control",SKMEL-28 cells [2],0.9
same,cell death,"B16F10 cells; B16F10, 5 µM 22(R)HC, 0.5 µM TO, 1 µM GW",no impact on cell death
same,cell death,"SKMEL-28 cells [3]; SKMEL-28, 5 µM 22(R)HC, 0.5 µM TO, 1 µM GW",no impact on cell death
same,Sterol amount/total sterol: 8-DHC,SKMEL-28 cells [4]; [5],0.04± 0.02
same,Sterol amount/total sterol: zymostenol,SKMEL-28 cells [4]; [5],0.36± 0.08
"CC(C)CCC[C@@H](C)[C@H]1CC[C@H]2[C@@H]3C[C@@H](NCCc4cnc[nH]4)[C@@]4(O)C[C@@H](O)CC[C@]4(C)[C@H]3CC[C@]12C [DDA, Dendrogenin A]",ABCA1 mRNA,"SKMEL-28 cells [1]; SKMEL-28, siCT",0.4±0.1 fold
same,ABCG1 mRNA,"SKMEL-28 cells [1]; SKMEL-28, siCT",1.0±0.1 fold
same,ABCG5 mRNA,"SKMEL-28 cells [1]; SKMEL-28, siCT",3.9±0.4 fold
same,ABCG8 mRNA,"SKMEL-28 cells [1]; SKMEL-28, siCT",0.2±0.1 fold
same,LC3A mRNA,"SKMEL-28 cells [1]; SKMEL-28, siCT",1.7±0.2 fold
same,LC3B mRNA,"SKMEL-28 cells [1]; SKMEL-28, siCT",1.6±0.1 fold
same,LDLR mRNA,"SKMEL-28 cells [1]; SKMEL-28, siCT",3.2±0.3 fold
same,NOR1 mRNA,"SKMEL-28 cells [1]; SKMEL-28, siCT",4.8±0.2 fold
same,Nur77 mRNA,"SKMEL-28 cells [1]; SKMEL-28, siCT",8.2±0.2 fold
same,SCD1 mRNA,"SKMEL-28 cells [1]; SKMEL-28, siCT",2.2±0.2 fold
same,SREBP1 mRNA,"SKMEL-28 cells [1]; SKMEL-28, siCT",0.9±0.2 fold
same,SULT2B1b mRNA,"SKMEL-28 cells [1]; SKMEL-28, siCT",2.9±0.1 fold
same,ABCA1 mRNA,"SKMEL-28 cells [1]; SKMEL-28, siLXRβ",0.9±0.1 fold
same,ABCG1 mRNA,"SKMEL-28 cells [1]; SKMEL-28, siLXRβ",0.8±0.2 fold
same,ABCG5 mRNA,"SKMEL-28 cells [1]; SKMEL-28, siLXRβ",1.1±0.2 fold
same,ABCG8 mRNA,"SKMEL-28 cells [1]; SKMEL-28, siLXRβ",0.7±0.2 fold
same,LC3A mRNA,"SKMEL-28 cells [1]; SKMEL-28, siLXRβ",0.8±0.2 fold
same,LC3B mRNA,"SKMEL-28 cells [1]; SKMEL-28, siLXRβ",0.9±0.3 fold
same,LDLR mRNA,"SKMEL-28 cells [1]; SKMEL-28, siLXRβ",1.8±0.2 fold
same,NOR1 mRNA,"SKMEL-28 cells [1]; SKMEL-28, siLXRβ",1.0±0.1 fold
same,Nur77 mRNA,"SKMEL-28 cells [1]; SKMEL-28, siLXRβ",1.2±0.2 fold
same,SCD1 mRNA,"SKMEL-28 cells [1]; SKMEL-28, siLXRβ",1.2±0.1 fold
same,SREBP1 mRNA,"SKMEL-28 cells [1]; SKMEL-28, siLXRβ",1.0±0.3 fold
same,SULT2B1b mRNA,"SKMEL-28 cells [1]; SKMEL-28, siLXRβ",1.1±0.2 fold
same,"LC3-II protein, densitometry relative to control",SKMEL-28 cells [2],2.5
same,"LC3-II protein, densitometry relative to untreated",SKMEL-28 cells [2]; SKMEL-28 sh3LXRβ,2.1
same,"LC3-II protein, densitometry relative to untreated",SKMEL-28 cells [2]; SKMEL-28 sh4LXRβ,2.6
same,"LC3-II protein, densitometry relative to untreated",SKMEL-28 cells [2]; SKMEL-28 shCTRL,5.5
same,"LC3-II protein, densitometry",SKMEL-28 cells [2]; SKMEL-28 siATG7,1.1
same,"LC3-II protein, densitometry",SKMEL-28 cells [2]; SKMEL-28 siBECN1,1.3
same,"LC3-II protein, densitometry",SKMEL-28 cells [2]; SKMEL-28 siNOR1 + siNur77,3.2
same,"LC3-II protein, densitometry",SKMEL-28 cells [2]; SKMEL-28 siNOR1,2.2
same,"LC3-II protein, densitometry",SKMEL-28 cells [2]; SKMEL-28 siNur77,1.8
same,"LC3-II protein, densitometry",SKMEL-28 cells [2]; SKMEL-28 siVPS34,1.2
same,EC50,"B16F10 cells; Mus musculus, B16-F10, 72 h, read-out: Cytotox EC50",700 ± 100 nM
same,EC50,"SKMEL-28 cells [3]; Homo sapiens, SK-MEL-28, SKMEL-28 (H), BRaf V600E, 72 h, read-out: Cytotox EC50",2100 ± 200 nM
same,Sterol amount/total sterol: 7-DHC,SKMEL-28 cells [4]; [6],0.03± 0.02
same,Sterol amount/total sterol: 8-DHC,SKMEL-28 cells [4]; [6],1.52± 0.10
same,Sterol amount/total sterol: desmosterol,SKMEL-28 cells [4]; [6],0.01± 0.009
same,Sterol amount/total sterol: lathosterol,SKMEL-28 cells [4]; [6],0.71± 0.02
same,Sterol amount/total sterol: zymostenol,SKMEL-28 cells [4]; [6],5.78± 0.82
same,Sterol amount/total sterol: 7-DHC,SKMEL-28 cells [4]; [7],0.39± 0.09
same,Sterol amount/total sterol: 8-DHC,SKMEL-28 cells [4]; [7],4.32± 0.66
same,Sterol amount/total sterol: desmosterol,SKMEL-28 cells [4]; [7],0.02± 0.005
same,Sterol amount/total sterol: zymostenol,SKMEL-28 cells [4]; [7],6.57± 0.92
same,Sterol amount/total sterol: 7-DHC,SKMEL-28 cells [4]; [8],0.03± 0.006
same,Sterol amount/total sterol: 8-DHC,SKMEL-28 cells [4]; [8],5.81± 0.89
same,Sterol amount/total sterol: desmosterol,SKMEL-28 cells [4]; [8],0.01± 0.008
same,Sterol amount/total sterol: lathosterol,SKMEL-28 cells [4]; [8],0.41± 0.03
same,Sterol amount/total sterol: zymostenol,SKMEL-28 cells [4]; [8],2.60±0.07
